Among the data in US9783536B2, “Nitrogen-containing heterocyclic compound or salt thereof” (FUJIFILM Corporation, priority 2013, dated 2017) are IC50 values, retold here.

For assay [1], the target named is T1, GST fusion human ERK2 protein (Homo sapiens, UniProt P28482).
T1 construct: purchased Carna Biosciences, Inc; host or cells: E. coli expression system
In words: ERK2 enzyme assay (2). The format is biochemical. The following applies: ERK2 enzyme assay (2); read-out: ERK2 enzyme inhibitory activity (2). The procedure, abridged: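 GST-tagged human ERK2 expressed in E. coli (1.25 nmol/L) was preincubated with compound for 15 min at room temperature in pH 7.5 Hepes buffer with MgCl2, DTT and Brij35. Reaction with FL-Peptide 8 (final 4.25 μmol/L) and ATP (final 1 mmol/L) ran 120 min at 25 °C; EDTA stopped it, and phosphorylated peptide was quantified by mobility-shift separation to derive IC50.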

Assay [2] deals with CHO-K1 cells. Nature of the assay: CHO cell toxicity test. The format is cell-based, Chinese hamster. Particulars: Cricetulus griseus, read-out: IC50 value (concentration at which the number of viable cells was suppressed to 50% or less). The protocol: In a CHO cell toxicity test, the following was used.
Cell: CHO-K1 cells (derived from Chinese hamster ovary) Test medium: F-12 MEDIUM+FCS (manufactured by Biowest) having a final concentration of 2%
Detection reagent: CELLTITER-GLO™ LUMINESCENT CELL VIABILITY ASSAY (trade name, manufactured by PROMEGA Corporation)
The CHO-K1 cells were seeded in a 96-well microplate for culture at 5,000 cells/well, and cultured in a CO2 incubator (37° C.) for 24 hours. An evaluation compound (final concentration: from 25.00 μmol/L to 0.20 μmol/L, common ratio: […]) was added thereto, followed by culturing for 24 hours, and the number of viable cells was calculated from emission intensity by CELLTITER-GLO™ (trade name, manufactured by PROMEGA Corporation). In the measurement of the emission intensity, VARIOSKAN FLASH (manufactured by Thermo Fisher Scientific Inc.) was used.
Inhibition ratio (%)=100−(A/B)×100
A: Emission intensity in the presence of a test compound
B: Emission intensity in the absence of a test compound

Assay [3] addresses T2, human PI3Kα protein (Homo sapiens, UniProt P42336).
T2 construct: purchased Carna Biosciences, Inc; host or cells: baculovirus expression system
In words: PI3Kα enzyme assay (ADP-Glo). The format is biochemical. The following applies: read-out: PI3Kα enzyme inhibitory activity. An outline of the steps: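 Biotinylated human PI3Kα (baculovirus-expressed, 4.5 nmol/L) pre-incubated 15 min with compound in Tris-HCl pH 7.5, MgCl2, BSA; reaction 60 min at 25° C with 50 μmol/L PIP2 and 100 μmol/L ATP final. ADP quantified by ADP-Glo luminescence; IC50 calculated.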

[4] abbreviates: CHO-K1 cells, 24 hours culture with compound, CellTiter-Glo.

Read-outs that look alike come from different tables or passages of the source. Where only a bound is given, the exact number is not on record here.

T2 sequence (P42336 whole entry): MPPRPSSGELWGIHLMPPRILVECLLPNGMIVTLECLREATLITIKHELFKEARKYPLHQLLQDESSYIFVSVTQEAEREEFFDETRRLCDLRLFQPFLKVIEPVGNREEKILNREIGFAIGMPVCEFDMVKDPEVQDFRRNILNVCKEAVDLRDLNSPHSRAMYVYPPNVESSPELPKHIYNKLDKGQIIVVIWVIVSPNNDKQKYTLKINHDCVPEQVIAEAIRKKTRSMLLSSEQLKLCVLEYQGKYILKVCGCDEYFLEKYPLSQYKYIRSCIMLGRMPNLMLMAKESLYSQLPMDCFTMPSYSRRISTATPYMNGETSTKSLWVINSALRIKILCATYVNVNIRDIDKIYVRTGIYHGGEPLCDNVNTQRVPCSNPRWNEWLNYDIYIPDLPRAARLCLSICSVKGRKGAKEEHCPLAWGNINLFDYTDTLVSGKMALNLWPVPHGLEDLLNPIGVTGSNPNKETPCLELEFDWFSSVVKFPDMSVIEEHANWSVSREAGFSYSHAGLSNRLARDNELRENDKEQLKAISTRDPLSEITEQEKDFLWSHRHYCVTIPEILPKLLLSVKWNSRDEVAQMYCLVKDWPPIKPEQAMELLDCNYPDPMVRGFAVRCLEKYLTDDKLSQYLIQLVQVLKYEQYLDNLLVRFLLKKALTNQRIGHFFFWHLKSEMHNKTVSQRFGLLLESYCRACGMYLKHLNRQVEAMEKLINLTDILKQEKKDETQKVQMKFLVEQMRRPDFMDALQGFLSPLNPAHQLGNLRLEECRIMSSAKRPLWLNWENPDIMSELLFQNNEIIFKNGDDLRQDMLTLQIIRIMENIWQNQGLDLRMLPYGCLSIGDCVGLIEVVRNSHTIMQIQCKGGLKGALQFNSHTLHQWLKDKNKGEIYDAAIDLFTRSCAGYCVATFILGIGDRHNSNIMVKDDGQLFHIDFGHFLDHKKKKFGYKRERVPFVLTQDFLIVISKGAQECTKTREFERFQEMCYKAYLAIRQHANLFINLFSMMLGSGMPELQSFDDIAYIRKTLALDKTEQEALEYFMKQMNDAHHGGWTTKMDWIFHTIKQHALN
T2 sequence (P27986 whole entry partner): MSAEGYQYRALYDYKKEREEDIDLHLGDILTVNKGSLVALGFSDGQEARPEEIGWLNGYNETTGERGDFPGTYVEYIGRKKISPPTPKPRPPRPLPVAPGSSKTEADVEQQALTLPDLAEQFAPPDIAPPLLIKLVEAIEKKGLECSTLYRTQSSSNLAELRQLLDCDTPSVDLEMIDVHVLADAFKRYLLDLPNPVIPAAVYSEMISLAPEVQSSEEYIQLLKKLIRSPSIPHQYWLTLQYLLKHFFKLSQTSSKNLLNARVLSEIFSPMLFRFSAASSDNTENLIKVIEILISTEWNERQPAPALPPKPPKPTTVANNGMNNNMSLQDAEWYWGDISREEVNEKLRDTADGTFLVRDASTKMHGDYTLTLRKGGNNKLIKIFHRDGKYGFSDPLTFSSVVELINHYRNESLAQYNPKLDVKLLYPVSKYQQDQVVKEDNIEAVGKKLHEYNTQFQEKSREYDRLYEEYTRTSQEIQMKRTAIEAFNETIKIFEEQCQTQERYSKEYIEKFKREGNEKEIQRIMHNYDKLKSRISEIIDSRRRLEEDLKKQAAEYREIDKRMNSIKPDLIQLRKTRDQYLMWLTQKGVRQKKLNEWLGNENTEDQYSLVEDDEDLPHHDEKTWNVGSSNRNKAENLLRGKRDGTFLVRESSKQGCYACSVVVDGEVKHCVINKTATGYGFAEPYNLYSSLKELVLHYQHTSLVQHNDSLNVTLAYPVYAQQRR
T1 sequence (P28482 whole entry, the tested form may be a part): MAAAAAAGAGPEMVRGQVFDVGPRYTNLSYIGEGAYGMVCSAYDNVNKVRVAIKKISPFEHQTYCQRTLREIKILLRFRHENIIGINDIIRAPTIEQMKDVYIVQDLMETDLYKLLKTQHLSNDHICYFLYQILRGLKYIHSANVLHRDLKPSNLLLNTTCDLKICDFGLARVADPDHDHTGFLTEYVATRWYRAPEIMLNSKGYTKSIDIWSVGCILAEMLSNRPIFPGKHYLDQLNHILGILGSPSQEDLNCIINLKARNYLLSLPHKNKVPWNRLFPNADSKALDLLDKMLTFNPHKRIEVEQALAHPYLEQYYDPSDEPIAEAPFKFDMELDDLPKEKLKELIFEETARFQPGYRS

Turning to `CC(C)c1cnnc(Nc2ccc3ncc(-c4cnn(CC5CCN(C)CC5)c4)cc3n2)c1` [Example 0486, N-(5-isopropylpyridazin-3-yl)-7-(1-((1-methylpiperidin-4-yl)methyl)-1H-pyrazol-4-yl)-1,5-naphthyridine-2-amine], the IC50 in assay [1] was under 1 µM; in assay [2] (setting [4]), at least 25 µM; in assay [3], under 1 µM.
With `CC(C)c1cnnc(Nc2ccc3ncc(-c4cnn(CCC5CCN(C)CC5)c4)cc3n2)c1` [Example 0487, N-(5-isopropylpyridazin-3-yl)-7-(1-(2-(1-methylpiperidin-4-yl)ethyl)-1H-pyrazol-4-yl)-1,5-naphthyridine-2-amine], the IC50 in assay [1] is under 1 µM; in assay [2] (setting [4]), at least 25 µM; in assay [3] it was under 1 µM.
`CC(C)c1cnnc(Nc2ccc3ncc(-c4cnn(C5CN(C)C5)c4)cc3n2)c1` [Example 0490]: the figures for the IC50 in assay [1], in assay [2] (setting [4]) and in assay [3] were under 1 µM, at least 25 µM and under 1 µM, respectively.
For `CC(C)c1cnnc(Nc2ccc3ncc(-c4cnn(CC5CN(C)C5)c4)cc3n2)c1` [Example 0491], the IC50 in assay [1] is under 1 µM; in assay [2] (setting [4]), at least 25 µM; in assay [3], under 1 µM.
Regarding `CC(C)c1cnnc(Nc2ccc3ncc(-c4cnn([C@H]5CCN(C)C5)c4)cc3n2)c1` [Example 0492], the IC50 in assay [1] was under 1 µM; in assay [2] (setting [4]) it was at least 25 µM; in assay [3] it was under 1 µM.
Take `CC(C)c1cnnc(Nc2ccc3ncc(-c4cnn([C@@H]5CCN(C)C5)c4)cc3n2)c1` [Example 0493]: the values for the IC50 in assay [1], in assay [2] (setting [4]) and in assay [3] were under 1 µM, at least 25 µM and under 1 µM, respectively.
As for `CCN(c1cnnc(Nc2ccc3ncc(-c4cnn(C)c4)cc3n2)c1)C(C)C` [Example 0500], the IC50 in assay [1] was under 1 µM; in assay [2] (setting [4]), at least 25 µM; in assay [3], under 1 µM.
For the compound `CC(C)c1cnnc(Nc2ccc3ncc(-n4ccnc4)cc3n2)c1` [Example 0510, 7-(1H-imidazol-1-yl)-N-(5-isopropylpyridazin-3-yl)-1,5-naphthyridine-2-amine], the IC50 in assay [1] is under 1 µM; in assay [2] (setting [4]), at least 25 µM; in assay [3], 1 to 10 µM.
In the case of `CC(C)c1cnnc(Nc2ccc3ncc(-c4cn(C)nc4-c4cccnc4)cc3n2)c1` [Example 0515], the IC50 in assay [1] is under 1 µM; in assay [2] (setting [4]) it was at least 25 µM; in assay [3], under 1 µM.
Take `CCN(CC)c1cnnc(Nc2ccc3ncc(-c4cnn(C)c4)cc3n2)c1` [Example 0517]: the IC50 in assay [1] is under 1 µM; in assay [2] (setting [4]), at least 25 µM; in assay [3] it was under 1 µM.
For the compound `CC(C)c1cnnc(Nc2ccc3ncc(-c4cnn(CC5CCN(S(C)(=O)=O)CC5)c4)cc3n2)c1` [Example 0530], the results for the IC50 in assay [1], in assay [2] (setting [4]) and in assay [3] were under 1 µM, at least 25 µM and under 1 µM, respectively.
Consider `CC(C)c1cnnc(Nc2ccc3ncc(-c4c[nH]nc4-c4cccnc4)cc3n2)c1` [Example 0545], for which the results for the IC50 in assay [1], in assay [2] (setting [4]) and in assay [3] were under 1 µM, at least 25 µM and under 1 µM, respectively.
Take `CC(C)c1cnnc(Nc2ccc3ncc(-c4cnn(CC(=O)N(C)C)c4)cc3n2)c1` [Example 0549, 2-(4-(6-((5-Isopropylpyridazin-3-yl)amino)-1,5-naphthyridin-3-yl)-1H-pyrazol-1-yl)-N,N-dimethylacetamide]: the results for the IC50 in assay [1], in assay [2] (setting [4]) and in assay [3] were under 1 µM, at least 25 µM and under 1 µM, respectively.
Consider `CC(C)c1cnnc(Nc2ccc3ncc(-c4cnn(CCCS(C)(=O)=O)c4)cc3n2)c1` [Example 0550], for which the IC50 in assay [1] is under 1 µM; in assay [2] (setting [4]), at least 25 µM; in assay [3] it was under 1 µM.
As for `CC(C)c1cnnc(Nc2ccc3ncc(-c4cn(C)nc4-c4ccncc4)cc3n2)c1` [Example 0552], the IC50 is under 1 µM in assay [1], at least 25 µM in assay [2] (setting [4]) and under 1 µM in assay [3].
As to `CC(C)c1cnnc(Nc2ccc3ncc(-c4cnn(C[C@@H]5CCC(=O)N5C)c4)cc3n2)c1` [Example 0557, (S)-5-((4-(6-((5-isopropylpyridazin-3-yl)amino)-1,5-naphthyridin-3-yl)-1H-pyrazol-1-yl)methyl)-1-methylpyrrolidin-2-one], the IC50 was under 1 µM in assay [1], at least 25 µM in assay [2] (setting [4]) and under 1 µM in assay [3].
On to `CC(C)c1cnnc(Nc2ccc3ncc(-c4cn(C)nc4C4CC4)cc3n2)c1` [Example 0567], for which the IC50 in assay [1] is under 1 µM; in assay [2] (setting [4]) it was at least 25 µM; in assay [3], under 1 µM.
`CC(C)c1cnnc(Nc2ccc3ncc(-c4cnn(CC5CN(S(C)(=O)=O)C5)c4)cc3n2)c1` [Example 0572, N-(5-isopropylpyridazin-3-yl)-7-(1-((1-(methylsulfonyl)azetidin-3-yl)methyl)-1H-pyrazol-4-yl)-1,5-naphthyridine-2-amine]: the IC50 in assay [1] is under 1 µM; in assay [2] (setting [4]), at least 25 µM; in assay [3], under 1 µM.
Turning to `Cn1cc(-c2cnc3ccc(Nc4cc(C5CC5)cnn4)nc3c2)c(-c2cccnc2)n1` [Example 0573, N-(5-cyclopropylpyridazin-3-yl)-7-(1-methyl-3-(pyridin-3-yl)-1H-pyrazol-4-yl)-1,5-naphthyridine-2-amine], the IC50 was under 1 µM in assay [1], at least 25 µM in assay [2] (setting [4]) and under 1 µM in assay [3].
`CCn1cc(-c2cnc3ccc(Nc4cc(C(C)C)cnn4)nc3c2)c(-c2cccnc2)n1` [Example 0576]: the IC50 was under 1 µM in assay [1], at least 25 µM in assay [2] (setting [4]) and under 1 µM in assay [3].
With `CC(C)c1cnnc(Nc2ccc3ncc(-c4cn(C)nc4-c4cncs4)cc3n2)c1` [Example 0583], the IC50 in assay [1] was under 1 µM; in assay [2] (CHO-K1, 24 h), at least 25 µM; in assay [3] it was under 1 µM.
For the compound `CC(C)c1cnnc(Nc2ccc3ncc(-c4cnn(CCCN5CC6(COC6)C5)c4)cc3n2)c1` [Example 0613], the IC50 was under 1 µM in assay [1], at least 25 µM in assay [2] (setting [4]) and under 1 µM in assay [3].
On to `CC(C)c1cnnc(Nc2ccc3ncc(-c4cnn(CCCN5C[C@@H](C)O[C@H](C)C5)c4)cc3n2)c1` [Example 0614], for which the IC50 in assay [1] was under 1 µM; in assay [2] (setting [4]), at least 25 µM; in assay [3], under 1 µM.
Take `CC(C)c1cnnc(Nc2ccc3ncc(-c4cnn(CCCN5C[C@@H](C)O[C@@H](C)C5)c4)cc3n2)c1` [Example 0615]: the IC50 in assay [1] was under 1 µM; in assay [2] (setting [4]), at least 25 µM; in assay [3], under 1 µM.
For the compound `CC(C)c1cnnc(Nc2ccc3ncc(-c4cn(C)nc4CF)cc3n2)c1` [Example 0626, 7-(3-(Fluoromethyl)-1-methyl-1H-pyrazol-4-yl)-N-(5-isopropylpyridazin-3-yl)-1,5-naphthyridine-2-amine], the IC50 in assay [1] is under 1 µM; in assay [2] (setting [4]) it was at least 25 µM; in assay [3], under 1 µM.
Regarding `CC(C)c1cnnc(Nc2ccc3ncc(-c4cnn(CCCN5CC(O)C5)c4)cc3n2)c1` [Example 0629], the IC50 is under 1 µM in assay [1], at least 25 µM in assay [2] (setting [4]) and under 1 µM in assay [3].
Turning to `COC1CN(CCCn2cc(-c3cnc4ccc(Nc5cc(C(C)C)cnn5)nc4c3)cn2)C1` [Example 0630], the values for the IC50 in assay [1], in assay [2] (setting [4]) and in assay [3] were under 1 µM, at least 25 µM and under 1 µM, respectively.
As to `Cn1cc(-c2cnc3ccc(Nc4cc(C5CCCC5)cnn4)nc3c2)c(CF)n1` [Example 0631, N-(5-cyclopentylpyridazin-3-yl)-7-(3-(fluoromethyl)-1-methyl-1H-pyrazol-4-yl)-1,5-naphthyridine-2-amine], the IC50 is under 1 µM in assay [1], at least 25 µM in assay [2] (setting [4]) and under 1 µM in assay [3].
Consider `CC(C)c1cnnc(Nc2ccc3ncc(-c4cn(C)nc4C(F)F)cc3n2)c1` [Example 0635], for which the IC50 in assay [1] is under 1 µM; in assay [2] (setting [4]), at least 25 µM; in assay [3] it was under 1 µM.
Turning to `CC(C)c1cnnc(Nc2ccc3ncc(-c4cnn(CCCN5CC6CC(C5)O6)c4)cc3n2)c1` [Example 0637, 7-(1-(3-(6-Oxa-3-azabicyclo[3.1.1]heptan-3-yl)propyl)-1H-pyrazol-4-yl)-N-(5-isopropylpyridazin-3-yl)-1,5-naphthyridine-2-amine], the results for the IC50 in assay [1], in assay [2] (setting [4]) and in assay [3] were under 1 µM, at least 25 µM and under 1 µM, respectively.
For the compound `CC(C)c1cnnc(Nc2ccc3ncc(-c4cnn(CCCN5CCO[C@@H](C)C5)c4)cc3n2)c1` [Example 0644], the IC50 in assay [1] was under 1 µM; in assay [2] (setting [4]) it was at least 25 µM; in assay [3], under 1 µM.
